According to US12391751B2, “Antibody against advanced glycation end products and use thereof” (Bloom Technology Corporation, priority 2018, dated 2025):

Legend:
[1] = tested on: HUVEC (human umbilical vein endothelial cells); assay: Neutralization test of vascular endothelial cell lumen formation inhibition (Example 14); assay type: cell-based; settings: Matrigel matrix; 8 hours culture
Protocol: Matrigel matrix (Corning Inc.) was placed in a refrigerator and thawed overnight. The thawed Matrigel matrix was added at 300 μL/well to a 12-well plate (Corning Inc.) and hardened by still standing at 37° C. for 1 hour in a CO2 incubator (ESPEC Corp.).
10 μL of Glycer-AGEs-BSA (10 mg/mL) prepared in Example 1 or 10 μL of control BSA (10 mg/mL), phosphate-buffered saline (PBS, FUJIFILM Wako Pure Chemical Corp.), and 90 μL of SJ-5 (10 mg/mL) or a control antibody (10 mg/mL) were added to a 1.5 mL tube (Watson) and left standing at room temperature for 10 minutes. Then, a supernatant was recovered by centrifugation at 14000 rpm for 15 minutes using a centrifuge (Thermo Fisher Scientific Inc.).
HUVEC (human umbilical vein endothelial cells, National Institutes of Biomedical Innovation, Health and Nutrition, JCRB cell bank) was cultured in a 10 cm dish (Corning Inc.) using 10 mL of a medium for HUVEC (KAC Co., Ltd.).
The cultured HUVEC was washed with 10 mL of PBS. Then, 1 mL of trypsin-EDTA (FUJIFILM Wako Pure Chemical Corp.) was added thereto and left standing at room temperature for 3 minutes. […]
After the centrifugation, the supernatant was discarded, and precipitated cells were resuspended by the addition of 1 mL of a medium for HUVEC. […] Then, the number of live cells was counted in Auto Cell Counter EVE (NanoEnTek Inc.). […]

CD31 = assay: Endothelial-to-mesenchymal transition inhibition test, real-time PCR (Example 15); assay type: cell-based, human; settings: HUVEC; β-actin internal standard; 8 hours
Protocol: (§1) 10 μL of Glycer-AGEs-BSA (10 mg/mL) prepared in Example 1, PBS, and 90 μL of SJ-5 (10 mg/mL) or a control antibody (10 mg/mL) were added to a 1.5 mL tube (Watson). Alternatively, 90 μL of a PBS solution of control BSA (10 mg/mL) was added. These solutions were left standing at room temperature for 10 minutes. Then, a supernatant was recovered by centrifugation at 14000 rpm for 15 minutes using a centrifuge (Thermo Fisher Scientific Inc.).
(§2) HUVEC was cultured in a 10 cm dish using 10 mL of a medium for HUVEC.
(§3) The cultured HUVEC was washed with 10 mL of PBS. Then, 1 mL of trypsin-EDTA was added thereto and left standing at room temperature for 3 minutes. HUVEC thus left standing was confirmed to be detached from the dish, and trypsin-EDTA was neutralized by the addition of 10 mL of a medium for HUVEC. After the neutralization, the whole amount was transferred to a 50 mL tube and centrifuged at 1500 rpm for 3 minutes using a centrifuge.
(§4) After the centrifugation, the supernatant was discarded, and precipitated cells were resuspended by the addition of 1 mL of a medium for HUVEC. A 10 μL aliquot from the resuspension was mixed with 10 μL of Trypan Blue, and 10 μL thereof was added to a counting chamber. Then, the number of live cells was counted in Auto Cell Counter EVE. The cell suspension was diluted into 2.5×10^5 cells/mL with a medium for HUVEC and inoculated at 400 μL/well to the Matrigel prepared in (1). After the inoculation, each reaction solution prepared in (2) was added at 100 μL/well, followed by culture for 8 hours in a CO2 incubator.
(§5) Each well was washed three times with 1 mL of PBS, and Cell Recovery Solution (Corning Inc.) was added at 500 μL/well.
(§6) The cells and the Matrigel matrix were scraped off using Blue Chip (Watson), recovered into a 1.5 mL tube, and transferred to the 1.5 mL tube after rinsing of each well again with 500 μL of Cell Recovery Solution. The 1.5 mL tube was mixed by inversion five times and then left standing on ice for 1 hour to confirm that the Matrigel matrix was completely degraded. After the Matrigel matrix degradation, a supernatant was discarded by centrifugation at 800 rpm at 4° C. Precipitated cells were gently suspended in 1 mL of ice-cooled PBS and centrifuged at 800 rpm at 4° C. to discard a supernatant. Precipitated cells were gently suspended again in 1 mL of ice-cooled PBS and centrifuged at 800 rpm at 4° C.
(§7) 125 μL of CellAmp Washing Buffer attached to the kit was added to the cells precipitated by centrifugation, and mixed. […]
(§8) After the addition, real-time PCR was performed with QuantStudio™ 12K Flex real-time PCR system (Thermo Fisher Scientific Inc.) to quantify gene expression levels. […]

α-SMA = assay: as above; assay type: cell-based, human; settings: HUVEC; β-actin internal standard; 8 hours
Protocol: as §1, §2, §3, §4, §5, §6, §7, §8

HUVEC = assay: Neutralization test of vascular endothelial cell lumen formation inhibition using PB-1 (Example 35); assay type: cell-based, human; settings: Matrigel matrix; 8-hour culture
Protocol: Matrigel matrix was prepared by the same operation as in Example 14.
10 μL of Glycer-AGEs-BSA (10 mg/mL) prepared in Example 1, 10 μL of phosphate-buffered saline (PBS, FUJIFILM Wako Pure Chemical Corp.), and 90 μL of the PB-1 antibody (10 mg/mL) or a control antibody (10 mg/mL) were added to a 1.5 mL tube (Watson) and left standing at room temperature for 10 minutes. Then, a supernatant was recovered by centrifugation at 14000 rpm for 15 minutes using a centrifuge (Thermo Fisher Scientific Inc.).
(3) A lumen formation inhibition test was conducted by the same operation as in Example 14. As shown in the drawing, HUVEC was confirmed to form a lumen in the Matrigel matrix in the control BSA addition group. […] Furthermore, this inhibition of lumen formation was neutralized by the reaction solution of PB-1.

[2] = tested on: POD-labeled novel monoclonal antibody (SJ-5); assay: Competitive ELISA of GAL691 and Lys-hydroxy-triosidine against SJ-5 (Example 18); assay type: binding, mouse; settings: immobilized Glycer-AGEs-BSA; competitor 0.625 to 10 mg/mL
Protocol: A solution of BSA containing AGEs derived from glyceraldehyde (stock solution: 10 mg/mL PBS solution) prepared into 1 μg/mL in a coating solution was added at 100 μL/well to a 96-well microtiter plate (COSTAR) and incubated overnight at 4° C.
(§9) Each well after the immobilization treatment was washed three times with a washing solution (300 μL), and a blocking solution (200 μL) was added thereto and left at room temperature for 1 hour.
GAL691 (prepared in Example 16) and Lys-hydroxy-triosidine (prepared in Example 17) were each dissolved in a phosphate buffer solution (0.2 M, pH 7.4) to prepare a 10 mg/mL solution. Sample solutions of 2-fold dilution series from 0.625 to 10 mg/ml (5 points) were further prepared by dilution with a diluting solution. Dilution solutions were also prepared from a blank solution containing no sample in the same way as above. […]
Absorbance was measured at a dominant wavelength of 450 nm and a sub-wavelength of 650 nm with a microplate reader (Cytation 5, BioTek Instrument Inc.), and the absorbance at the sub-wavelength was subtracted from the absorbance at the dominant wavelength. Change in the absorbance of GAL691 and Lys-hydroxy-triosidine was indicated as relative values to the absorbance of the blank solution.

PB-1 antibody = assay: Competitive ELISA of GAL691 and known AGEs against PB-1 (Example 31); assay type: binding, mouse; settings: immobilized A-peak-BSA; competitor 0.04 to 2.5 mM; PB-1 0.1 μg/mL
Protocol: Competitive ELISA was conducted using the reagents described in Example 13. A solution of A-peak-BSA prepared into 1 μg/mL in a coating solution was added at 100 μL/well to a 96-well microtiter plate (Costar) and incubated overnight at 4° C.
as §9
GAL691 (prepared in Example 16), GLAP (prepared in Example 12), Lys-hydroxy-triosidine (prepared in Example 17), GA-pyridine (prepared in Example 28), GOLD (prepared in Example 29), and Z-Lys were each dissolved in a phosphate buffer solution (0.2 M, pH 7.4) to prepare a 100 mM solution. Then, a 10 mM solution was prepared by dilution 10-fold with a diluting solution containing BSA (1 mg/mL, FUJIFILM Wako Pure Chemical Corp.). Sample solutions of 4-fold dilution series of 0.04, 0.16, 0.63, and 2.5 mM were further prepared with a diluting solution containing a 10% (v/v) phosphate buffer solution and 1 mg/mL BSA. Ten-fold dilutions of a phosphate buffer solution with a diluting solution containing 1 mg/mL BSA were prepared as blank solutions containing no sample in the same way as above. A 0.1 μg/mL solution of the PB-1 antibody was prepared with a diluting solution containing 1 mg/mL BSA.
Each well treated with the blocking solution was washed three times with a washing solution (300 μL), and the sample solutions of 4-fold dilution series (50 μL each) and the PB-1 antibody dilution solution (50 μL) were added thereto, stirred with a plate mixer for 2 minutes, and then incubated at room temperature for 1 hour.
After the competitive reaction, each well was washed three times with a washing solution (300 μL), and peroxidase-labeled anti-mouse IgG (H+L) polyclonal antibody, F(ab′)2 fragment (Kirkegaard & Perry Laboratories, Inc.) diluted into 0.05 μg/mL with a diluting solution containing 1 mg/mL BSA was added at 100 μL/well and left standing at room temperature for 1 hour.
After washing three times with a washing solution (300 μL), a substrate solution (ELISA POD substrate TMB kit (Popular), Nacalai Tesque, Inc.) was added at 100 μL/well and incubated at room temperature for 10 minutes under light shielding. Then, color development was terminated by the addition of 2 N sulfuric acid (50 μL).
Absorbance was measured at a dominant wavelength of 450 nm and a sub-wavelength of 650 nm with a microplate reader (Cytation 5, BioTek Instrument Inc.), and the absorbance at the sub-wavelength was subtracted from the absorbance at the dominant wavelength. Change in the absorbance of GAL691, GLAP, Lys-hydroxy-triosidine, GA-pyridine, GOLD, and Z-Lys was indicated as relative values to the absorbance of the blank solution.

Glycer-AGEs-BSA: bovine serum albumin containing AGEs derived from glyceraldehyde [reference compound]
effect on lumen formation of HUVEC [1]: inhibited lumen formation
expression level of CD31 (CD31): decreased
expression level of α-SMA (α-SMA): increased
effect on lumen formation of HUVEC (HUVEC): inhibited lumen formation

CC(=O)NC(CCCCNCc1cc(O)c[n+](CCCCC(NC(C)=O)C(=O)O)c1)C(=O)O (stereo not drawn) [Lys-hydroxy-triosidine]
change in absorbance relative to blank (competition for SJ-5 binding) [2]: no reduction in absorbance was observed
change in absorbance relative to blank (competition for PB-1 binding) (PB-1 antibody): no reduction in absorbance was observed
